Measurements: patent US5276177A, “Physiologically active substance” (Matsuno; Tetsuya, priority 1991, dated 1994)
≈ marks a conversion by molar mass, not a printed value.

Columns and labels:
HeLa S3 cells = test: Growth inhibition to Hela S3 cells (Neutral Red staining, 72 hours); type: cell-based; settings: Homo sapiens, 37° C., MEM with 10% fetal bovine serum, 550 nm
Procedure: (§1) Growth inhibition to Hela S3 cells
(§2) 0.1 Milliliter of a test compound properly diluted with an MEM culture containing 10% fetal bovine serum and 2 mM of glutamine was placed in each of 96 wells of a microtiter plate. Then, trypsinized HeLa S3 cells (ATCC HTB22) were adjusted with the above culture to form a solution containing 3×10^4 cells/ml, and 0.05 ml of the solution was added to each well.
(§3) The above plate was cultured in a carbonic acid gas incubator at 37° C. for 72 hours, and then culture supernatants were removed. 0.1 Milliliter of a culture medium containing 0.02% Neutral Red was added to each well, and the plate was cultured in the carbonic acid gas incubator at 37° C. for 1 hour to stain the cells. After culture supernatants were removed, the remainders were once washed with a physiological saline solution. Then, the dyestuff was extracted with 0.001N hydrochloric acid/30% ethanol, and the absorbance at 550 nm was measured with a microplate reader. In comparison between the absorbance of untreated cells and the absorbance of cells treated with the known concentration of the test compound, the growth inhibition ratio of the cells was calculated on the basis of the following equation. [formula] A: Absorbance of cells treated with the compound B: Absorbance of a well containing no cells
(§4) C: Absorbance of untreated cells […]

growing cells = test: cell cycle analyzed with a flow cytometer; type: cell-based
cultured tumor cells = test: antitumor activity against cultured tumor cells (summary statement); type: cell-based
Procedure: as §1, §2, §3, §4

Solubility = type: physicochemical
[1] = Experientia 44, 230, (1988); cited from earlier work

Compound	IC50 (HeLa S3 cells) [µg/mL]	cell cycle effect (growing cells)	antitumor activity (cultured tumor cells)	Solubility (Solubility; in acidic water)	Solubility (Solubility; in methanol, ethyl acetate, chloroform and DMSO)	antitumor activity [1]
CC(=CC(=O)O)CC[C@@]1(C)[C@H](CO)CC[C@@]2(C)C(C)=CCC[C@H]12 [novel physiologically active substance]	87 (≈ 271 µM)	terminated the growing cells at S phase and destroyed them	exhibits antitumor activity against cultured tumor cells	Sparingly soluble in acidic water	Soluble in methanol, ethyl acetate, chloroform and DMSO	–
O=C(/C=C/c1ccc(O)c(O)c1)OCCc1ccccc1 [phenetyl cafeate]	–	–	–	–	–	has antitumor activity
